Experimental data from US12139505B2, “Compositions useful in therapy of autophagy-related pathologies, and methods of making and using the same” (The University of Toledo, priority 2017, dated 2024).
“Also recorded” adds a separate entry of the source.

What was measured:
SH-SY5Y cells = assay: Cell viability, MTS assay; assay type: cell-based, human; conditions: for average cell viability: 24 hours; for toxicity to neuroblastoma cells: 0.1 to 1 μM
Description: Synthesized compounds were added to a 3-dram screw capped vial, followed by DMSO (ca. 5 mL) to make a 10 mM stock solution. The test stock solution was made and used on the same day. 100 μL of the 10 mM stock solution was diluted into 900 μL of DMSO (1:9 dilution) to make 1 mM stock solution. 100 μL of the 1 mM stock solution was diluted into 900 μL of DMSO (1:9 dilution) to make a 100 μM solution. 100 μL of the 100 μM stock solution was diluted into 900 µL of DMSO (1:9 dilution) to make a 10 μM stock solution. The test solutions were prepared by using the dilution ratio of 10 μL stock solutions into 990 μL (1:99 dilution) of Complete Culture Media (CCM) to afford drug solution (1% DMSO) from 0.1 to 100 μM. For positive control: 10 mg/mL of TritonX-100 is diluted in CCM. For negative control: 1 μL of DMSO is dissolved in every 100 μL of CCM.
Cells were grown in bulk in 100 mm petri dishes. On the day of use, the cell culture media was removed from the dish. SH-SY5Y cells were washed with PBS, then 0.25% Trypsin/EDTA was used to aid in detaching the cells, CCM was then added to neutralize the Trypsin/EDTA and wash the cells from the dish. Washed cells are collected in a centrifuge tube for concentration. After centrifugation at 2000 RPM for 5 minutes, the cells were re-suspended in CCM. The final concentration of cells was 5×10^3 per 100 μL The 5000 cells/100 μL solution was seeded into a clear, flat bottomed, 96-well microliter plate and incubated for 24 hours at 37° C. in 5% CO2. After 24 hours, the media was removed and replaced by 100 μL CCM containing the drug/positive/negative control and was incubated at 37° C. in a 5% CO2 for 24 hours. After this incubation period, 20 μL of MTS solution was added to each well via a multichannel pipette. The plates were shaken by hand to thoroughly mix the MTS solution into the media and incubated at 37° C. in a 5% CO2 for 4 hours. The absorbance was read at 490 nm using the Synergy Neo microplate reader.

PINK1^B9 flies [1] = assay: Fly climbing assay; assay type: in vivo, Drosophila melanogaster; conditions: 100 μM in media
Description: 2-n-hexyl-LKE-P was dissolved in DMSO and supplemented into a warm solution of minimal media (5% sucrose, 2% agarose and water, 60° C.) to a final concentration of 10, 100 and 1000 μM. Freshly eclosed adult flies were transferred to minimal media containing the drug for one day followed by the experiments. The locomotive ability of flies was assessed 10 days after eclosion via a climbing assay. 15 flies were transferred to a tube marked 17.5 cm from the bottom and a digital camera, connected directly to a PC, recorded flies as they cross the line, continuously, for two minutes. Analysis of the recorded video was done by recording the number of flies that remain above the 17.5 cm line every ten seconds. If a fly climbs back down or falls, that fly is removed from the total count at the next 10 second time point. The percentage of flies remaining above the line at the 120 second time point was recorded. The 120 second time point was chosen because it has been previously determined that this is the average amount of time required for all untreated flies to cross the 17.5 cm mark.

PINK1^B9 flies [2] = assay: Fly longevity (survival) assay; assay type: in vivo, Drosophila melanogaster
Description: 2-n-hexyl-LKE-P was dissolved in DMSO and supplemented into a warm solution of minimal media (5% sucrose, 2% agarose and water, 60° C.) to a final concentration of 10, 100 and 1000 μM. Freshly eclosed adult flies were transferred to minimal media containing the drug for one day followed by the experiments. 15 flies from each group were placed in a vial containing food, kept on its side to prevent the flies from sticking to the media, at 23° C., 60% humidity, under a 12-h light-dark cycle. Food vials were changed every 2-3 days and the dead flies were counted daily. Over 100 flies were prepared for each genotype and the experiments were carried out three times. The number of surviving flies on each day was converted to surviving days for each fly and imported to GraphPad Prism. Kaplan-Meier surviving curves were graphed and statistics was performed by log-rank test on the surviving data to compare the longevity with different treatment.

## CCCCCCC1=C(P(=O)(O)O)N[C@H](C(=O)OCC)CS1 [2-n-hexyl-LKE-P]
SH-SY5Y cells
  concentration at which toxicity begins to show: 10 µM
  toxicity to neuroblastoma cells: not toxic
SH-SY5Y cells; 10 μM
  average cell viability: 83%
SH-SY5Y cells; 100 μM
  average cell viability: 63%
SH-SY5Y cells; listed as 2-n-heyxl-LKE-P
  toxicity to neuroblastoma cells: no toxicity
PINK1^B9 flies [1]
  climbing ability of PINK1^B9 flies: statistically significant improvement in the climbing ability; also recorded: significant improvement of PINK1^B9 climbing ability
PINK1^B9 flies [2]; 10 μM in media
  survival of PINK1^B9 flies: did not significantly affect the survival
PINK1^B9 flies [2]; 100 μM in media
  survival of PINK1^B9 flies: did not significantly affect the survival
PINK1^B9 flies [2]; 1000 μM in media
  lifespan of PINK1^B9 flies: extended the lifespan; also recorded: significantly increased the PINK1^B9 lifespan
PINK1^B9 flies [2]; dose not stated (summary)
  lifespan of PINK1^B9 flies: more than double the lifespan
